The source of these data is patent publication US20020183384A1, “Methods of treating nuclear factor-kappa B mediated diseases and disorders” (priority 2001, published 2002).

SMILES strings stand for the structures. Read-outs that look alike come from different tables or passages of the source. Where only a bound is given, the exact number is not on record here.

For this experiment, the system named is NF-κB mediated transcription. Kind of experiment: NF-κB driven β-lactamase reporter assay in ECV-304 NF-κB.βlaZ cells (AURORA CCF2 fluorescence). In kind it is cell-based, human. The conditions noted are these: 10 μM compound, ECV-304 NF-κB.βlaZ cells stimulated with 10 ng/mL TNF-α or 100 pg/mL IL-1β, 6 hours at 37° C., inhibition of maximum blue/green ratio; for inhibition at 10 µM: Homo sapiens, read-out: Percent Inhibition at 10 μM. An excerpt:
Introduction: Described below is an in vitro, cell-based, high throughput screening assay that reliably identifies inhibitors of NF-κB mediated transcription.
The assay takes advantage of AURORA (Aurora Bioscience Corporation, La Jolla, Calif.) fluorescence technology. Endothelial cell vein-304 (ECV-304) cells, an endothelial-like immortalized cell type, may be stably transfected with a plasmid vector containing the cDNA for the enzyme β-lactamase (under the control of a basal promoter, Stratagene pNFκB-luc vector) and 5 copies of an human immunodeficiency virus-1 (HIV-1) NF-κB binding site. ECV-304 cells are described by Takahashi K. et al. in Spontaneous Transformation and Immobilization of Human Endothelial Cells, In Vitro Cell. Dev. Biol. 1990;25:265-274. Activation of NF-κB in ECV-304 by cytokines such as TNF-α or interleuken-1 beta (IL-1β) results in the production of β-lactamase, which cleaves a green fluorescent substrate (excitation/emission wavelengths 395 nm1530 nm) to yield a blue fluorescent product (excitation/emission wavelengths 395 nm/460 nm). Visually, the uncleaved green fluorescent substrate is sequestered intracellularly and emits green fluorescence, while the cleaved product emits blue fluorescence. Fluorescence is quantitated spectrophotometrically, and the spectral intensity of blue fluorescence versus green fluorescence can be used to calculate the degree of activation of NF-κB.
The assay was performed as outlined here and described in detail below. ECV-304 cells permanently transfected with the NF-κB driven β-lactamase gene (ECV-304 NF-κB.βlaZ) were plated in clear-bottom, black 96-well plates (1.25×10^4 cells/well) in media-199 (M-199) media containing 2% fetal bovine serum (FBS). […] The AURORA fluorescent disclosing reagent was then added. After one additional hour, the plates were read in a fluorometer at the blue 395 nm/460 nm (excitation/emission) and green 395 nm/530 nm wavelengths. Then the blue/green emission ratio was calculated. […] An IC50 for said sulfonylaminocarbonyl derivative was determined from a dose-response curve. This assay was designed to be optionally run in either high or low throughput screening modes.
Five copies of the HIV-1 NF-κB binding site (5′-[…]-3′) along with a TATA box were inserted into the EcorRI/BamHI sites of plasmid pMCRBlaZ to create plasmid p5×KBBlaZ, which procedure is illustrated in Scheme 1 below. [formula]
Cells were selected for antibiotic resistance with Zeocin for approximately 2 weeks. After the stable population had been expanded to a significant number of cells, it was stimulated with IL-1β and stained with AURORA CCF2 dye, a membrane permeant, intracellularly-trapped, fluorescent substrate. Cells that fluoresced blue (indicating a positive response of the NF-κB/β-lactamase reporter to stimulation by IL-1β) in the stimulated/stained population were then sorted by flow cytometry into a pool. The pool was expanded and stained with CCF2, and then the cells that fluoresced green from this unstimulated population (indicating a low background of the NF-κB/β-lactamase reporter construct) were cloned by flow cytometry after adding 1 cell per well in 96-well plates. Clones were allowed to expand. Each cloned cell line was then examined for fold stimulation after stimulation with IL-1β using a CCF2 reporter assay, and these stimulated cells were compared to unstimulated cells.
Cells: ECV-304 NF-κB β-Lactamase clone 1E8
Inhibitors: Prepared stock solutions of aminosulfonyl derivatives at 10 mM concentration in DMSO;
c) Added 10 μL of B into appropriate well in assay plate (the final concentration of drug is 10 μM), and […]
For orientation: A reporter such as luciferase makes a cellular process visible.

A word on the inhibition: it is how much of the control response was suppressed. Consider `CCCCCCCCN(C)S(=O)(=O)NC(=O)Oc1c(C(C)C)cccc1C(C)C` [Example 87, Carbamic acid, [(methyloctylamino)sulfonyl]-, 2,6-bis(1-methylethyl)-phenyl ester], for which the inhibition at 10 µM was < 10%. As to `CC(C)c1cc(C(C)C)c(CC(=O)NS(=O)(=O)Oc2c(C(C)C)cc(F)cc2C(C)C)c(C(C)C)c1` [Example 185, [(2,4,6-Triisopropyl-phenyl)-acetyl]-sulfamic acid 4-fluoro-2,6-diisopropyl-phenyl ester], where the note is “ECV-304, 6 h”, the inhibition at 10 µM was determined as 73.9%. The same measure, in the same setting: the same measure for `CC(C)c1cccc(C(C)C)c1OS(=O)(=O)NC(=O)C1c2ccccc2Oc2ccccc21` [Example 173, (9H-Xanthene-9-carbonyl)-sulfamic acid 2,6-diisopropyl-phenyl ester]: 36.9%.

Consider `CC(C)(C)c1cc(O)cc(C(C)(C)C)c1OC(=O)NS(=O)(=O)Nc1ccccc1` [Example 14, Carbamic acid, [(phenylamino)sulfonyl]-, 2,6-bis(1,1-dimethylethyl)-4-hydroxyphenyl ester], for which the inhibition at 10 µM is 13.8%. Turning to `CCCCCCCCCCCCOS(=O)(=O)NC(=O)Sc1c(C(C)C)cccc1C(C)C` [Example 93, Carbamothioic acid, [(dodecyloxy)sulfonyl]-, S-[2,6-bis(1-methylethyl)-phenyl] ester], the inhibition at 10 µM (ECV-304, 6 h) is 14.5%.

On to `CC(C)c1cccc(C(C)C)c1OS(=O)(=O)NC(=O)OCC(COC(=O)NS(=O)(=O)Oc1c(C(C)C)cccc1C(C)C)OC(=O)NS(=O)(=O)Oc1c(C(C)C)cccc1C(C)C` [Example 112, Carbamic acid, [[2,6-bis(1-methylethyl)phenoxy]sulfonyl]-, 1,2,3-propanetriyl ester], for which the “Percent Inhibition at 10 μM” value is recorded as <10%. Consider `CC(C)(C)c1cccc(C(C)(C)C)c1OC(=O)NS(=O)(=O)NCC(c1ccccc1)c1ccccc1` [Example 11, Carbamic acid, [[(2,2-diphenylethyl)amino]sulfonyl]-, 2,6-bis(1,1-dimethylethyl)-phenyl ester], for which the inhibition at 10 µM worked out at 50.1%. For `CC(C)c1cc(C(C)C)c(CC(=O)NS(=O)(=O)Oc2c(C(C)C)cc(Br)cc2C(C)C)c(C(C)C)c1` [Example 203, [(2,4,6-Triisopropyl-phenyl)-acetyl]-sulfamic acid 4-bromo-2,6-diisopropyl-phenyl ester], under “ECV-304, 6 h”, the inhibition at 10 µM is 52.2%.

As for `CC(C)c1cccc(C(C)C)c1OS(=O)(=O)NC(=O)CCc1ccccc1` [Example 176, (3-Phenyl-propionyl)-sulfamic acid 2,6-diisopropyl-phenyl ester], where the note is “ECV-304, 6 h”, the inhibition at 10 µM was < 10%.

Turning to `CCCCCCCCCCCCOS(=O)(=O)NC(=O)Nc1c(C(C)C)cccc1C(C)C` [Example 69, Sulfamic acid, [[[2,6-bis(1-methylethyl)phenyl]amino]carbonyl]-, dodecyl ester], the inhibition at 10 µM (ECV-304, 6 h) is 75.5%. Still for that read-out and setting: the result for `CC(C)c1cccc(C(C)C)c1OS(=O)(=O)NC(=O)C1(c2ccc([N+](=O)[O-])cc2)CCCC1` [Example 213, [1-(4-Nitro-phenyl)-cyclopentanecarbonyl]-sulfamic acid 2,6-diisopropyl-phenyl ester] reads 19.7%; that for `Cc1cc(C)c(CC(=O)NS(=O)(=O)Oc2c(C(C)C)cccc2C(C)C)c(C)c1` [Example 146, [(2,4,6-Trimethyl-phenyl)-acetyl]-sulfamic acid 2,6-diisopropyl-phenyl ester], 28.3%.

On to `CC(C)(C)c1cccc(C(C)(C)C)c1OC(=O)NS(=O)(=O)Oc1c(C(C)(C)C)cccc1C(C)(C)C` [Example 100, Carbamic acid, [[2,6-bis(1,1-dimethylethyl)phenoxy]sulfonyl]-, 2,6-bis(1,1-dimethylethyl)phenyl ester], for which the inhibition at 10 µM amounted to 50%.

As for `CC(C)(C)c1cccc(C(C)(C)C)c1OC(=O)NS(=O)(=O)Nc1ccccc1` [Example 15, Carbamic acid, [(phenylamino)sulfonyl]-, 2,6-bis(1,1-dimethylethyl)-phenyl ester], the inhibition at 10 µM was determined as 12.6%. For `CCCCCCCCCCCCCCCCS(=O)(=O)NC(=O)Nc1c(C(C)C)cccc1C(C)C` [Example 238, N-[2,6-bis(1-methylethyl)phenyl]-N′-(hexadecylsulfonyl)-urea], for the setting “ECV-304, 6 h”, the inhibition at 10 µM came to 12%. With `CC(C)(C)c1cccc(C(C)(C)C)c1OC(=O)NS(=O)(=O)Nc1ccccc1Cc1ccccc1` [Example 221, Carbamic acid, [[[2-(phenylmethyl)phenyl]amino]sulfonyl]-, 2,6-bis(1,1-dimethylethyl)phenyl ester], the inhibition at 10 µM amounted to 44.7%. Regarding `CC(C)c1cccc(C(C)C)c1NC(=O)NS(=O)(=O)N(Cc1ccccc1)C(C)C` [Example 22, N-[2,6-bis(1-methylethyl)phenyl]-N′-[[(1-methylethyl)-(phenylmethyl)amino]-sulfonyl]-urea], the inhibition at 10 µM (ECV-304, 6 h) amounted to 20.2%. For the compound `Cc1cccc(C)c1OS(=O)(=O)NC(=O)Oc1c(C(C)C)cccc1C(C)C` [Example 98, Carbamic acid, [(2,6-dimethylphenoxy)sulfonyl]-, 2,6-bis(1-methylethyl)-phenyl ester], the inhibition at 10 µM was < 10%. As for `Cc1cc(C(C)(C)C)c(OC(=O)NS(=O)(=O)NC(c2ccccc2)c2ccccc2)c(C(C)(C)C)c1` [Example 3, Carbamic acid, [[(diphenylmethyl)amino]sulfonyl]-, 2,6-bis(l,1-dimethylethyl)-4-methylphenyl ester], the “Percent Inhibition at 10 μM” value is recorded as 79.34%. Same read-out and setting: the result for `CCCCCCC(C)OS(=O)(=O)NC(=O)Nc1c(C(C)C)cccc1C(C)C` (stereo not shown) [Example 94, Sulfamic acid, [[[2,6-bis(1-methylethyl)phenyl]amino]carbonyl]-, 1-methylheptyl ester,] reads <10%. Consider `CCCCCCCCCCCCOS(=O)(=O)NC(=O)Oc1c(C(C)(C)C)cc(C)cc1C(C)(C)C` [Example 51, Carbamic acid, [(dodecyloxy)sulfonyl]-, 2,6-bis(1,1-dimethylethyl)-4-methylphenyl ester], for which the inhibition at 10 µM was 47.2%. In the case of `CC(C)c1cccc(C(C)C)c1OS(=O)(=O)NC(=O)C(c1ccccc1)(c1ccccc1)c1ccccc1` [Example 163, Triphenylacetyl-sulfamic acid 2,6-diisopropyl-phenyl ester], where the note is “ECV-304, 6 h”, the inhibition at 10 µM was found to be 62.4%. Take `CCCCCCCCCCCCOC(=O)NS(=O)(=O)Nc1c(C(C)C)cccc1C(C)C` [Example 53, Carbamic acid, [[[2,6-bis(1-methylethyl)phenyl]amino]sulfonyl]-, dodecyl ester]: for the setting “10 µM”, the “Percent Inhibition at 10 μM” value worked out at 61.31%. For `Cc1cccc(C(C)(C)C)c1OC(=O)NS(=O)(=O)Oc1c(C(C)C)cccc1C(C)C` [Example 137, Carbamic acid, [[2,6-bis(1-methylethyl)phenoxy]sulfonyl]-, 2-(1,1-dimethylethyl)-6-methylphenyl ester], the inhibition at 10 µM was < 10%. Take `CC(C)c1cccc(C(C)C)c1OC(=O)NS(=O)(=O)Oc1c(F)cccc1F` [Example 103, Carbamic acid, [(2,6-difluorophenoxy)sulfonyl]-, 2,6-bis(1-methylethyl)-phenyl ester]: the inhibition at 10 µM was < 10%.
